Assay results from ChEMBL document CHEMBL4765227, “Hit to lead optimization of a series of N-[4-(1,3-benzothiazol-2-yl)phenyl]acetamides as monoacylglycerol lipase inhibitors with potential anticancer activity” (Eur J Med Chem, 2016).

How the values were obtained:
Assay type in all cases: functional
Conditions in all cases: read-out: GI
NCI-H226 = assay: Growth inhibition of human NCI-H226 cells at 10 uM incubated for 48 hrs by sulforhodamine B assay relative to control
IGROV-1 = assay: Growth inhibition of human IGROV-1 cells at 10 uM incubated for 48 hrs by sulforhodamine B assay relative to control
PC-3 = assay: Growth inhibition of human PC-3 cells at 10 uM incubated for 48 hrs by sulforhodamine B assay relative to control
Hs-578T = assay: Growth inhibition of human Hs-578T cells at 10 uM incubated for 48 hrs by sulforhodamine B assay relative to control
MCF7 = assay: Growth inhibition of human MCF7 cells at 10 uM incubated for 48 hrs by sulforhodamine B assay relative to control
UACC-62 = assay: Growth inhibition of human UACC-62 cells at 10 uM incubated for 48 hrs by sulforhodamine B assay relative to control
MDA-MB-435 = assay: Growth inhibition of human MDA-MB-435 cells at 10 uM incubated for 48 hrs by sulforhodamine B assay relative to control
K562 = assay: Growth inhibition of human K562 cells at 10 uM incubated for 48 hrs by sulforhodamine B assay relative to control
HT-29 = assay: Growth inhibition of human HT-29 cells at 10 uM incubated for 48 hrs by sulforhodamine B assay relative to control
SK-OV-3 = assay: Growth inhibition of human SK-OV-3 cells at 10 uM incubated for 48 hrs by sulforhodamine B assay relative to control
KM12 = assay: Growth inhibition of human KM12 cells at 10 uM incubated for 48 hrs by sulforhodamine B assay relative to control
UO-31 = assay: Growth inhibition of human UO-31 cells at 10 uM incubated for 48 hrs by sulforhodamine B assay relative to control
MDA-MB-468 = assay: Growth inhibition of human MDA-MB-468 cells at 10 uM incubated for 48 hrs by sulforhodamine B assay relative to control
SK-MEL-5 = assay: Growth inhibition of human SK-MEL-5 cells at 10 uM incubated for 48 hrs by sulforhodamine B assay relative to control
A549 = assay: Growth inhibition of human A549/ATCC cells at 10 uM incubated for 48 hrs by sulforhodamine B assay relative to control
SR = assay: Growth inhibition of human SR cells at 10 uM incubated for 48 hrs by sulforhodamine B assay relative to control
RXF 393 = assay: Growth inhibition of human RXF 393 cells at 10 uM incubated for 48 hrs by sulforhodamine B assay relative to control
M14 = assay: Growth inhibition of human M14 cells at 10 uM incubated for 48 hrs by sulforhodamine B assay relative to control
OVCAR-4 = assay: Growth inhibition of human OVCAR-4 cells at 10 uM incubated for 48 hrs by sulforhodamine B assay relative to control
NCI-H23 = assay: Growth inhibition of human NCI-H23 cells at 10 uM incubated for 48 hrs by sulforhodamine B assay relative to control
OVCAR-5 = assay: Growth inhibition of human OVCAR-5 cells at 10 uM incubated for 48 hrs by sulforhodamine B assay relative to control
T47D = assay: Growth inhibition of human T47D cells at 10 uM incubated for 48 hrs by sulforhodamine B assay relative to control
MDA-MB-231 = assay: Growth inhibition of human MDA-MB-231 cells at 10 uM incubated for 48 hrs by sulforhodamine B assay relative to control
TK-10 = assay: Growth inhibition of human TK-10 cells at 10 uM incubated for 48 hrs by sulforhodamine B assay relative to control
DU-145 = assay: Growth inhibition of human DU-145 cells at 10 uM incubated for 48 hrs by sulforhodamine B assay relative to control
UACC-257 = assay: Growth inhibition of human UACC-257 cells at 10 uM incubated for 48 hrs by sulforhodamine B assay relative to control
ACHN = assay: Growth inhibition of human ACHN cells at 10 uM incubated for 48 hrs by sulforhodamine B assay relative to control
SF-295 = assay: Growth inhibition of human SF-295 cells at 10 uM incubated for 48 hrs by sulforhodamine B assay relative to control
Malme-3M = assay: Growth inhibition of human Malme-3M cells at 10 uM incubated for 48 hrs by sulforhodamine B assay relative to control
BT-549 = assay: Growth inhibition of human BT-549 cells at 10 uM incubated for 48 hrs by sulforhodamine B assay relative to control
HCC 2998 = assay: Growth inhibition of human HCC 2998 cells at 10 uM incubated for 48 hrs by sulforhodamine B assay relative to control
NCI-H322M = assay: Growth inhibition of human NCI-H322M cells at 10 uM incubated for 48 hrs by sulforhodamine B assay relative to control
RPMI-8226 = assay: Growth inhibition of human RPMI-8226 cells at 10 uM incubated for 48 hrs by sulforhodamine B assay relative to control
786-0 = assay: Growth inhibition of human 786-0 cells at 10 uM incubated for 48 hrs by sulforhodamine B assay relative to control
HL-60(TB) = assay: Growth inhibition of human HL-60(TB) cells at 10 uM incubated for 48 hrs by sulforhodamine B assay relative to control
SN12C = assay: Growth inhibition of human SN12C cells at 10 uM incubated for 48 hrs by sulforhodamine B assay relative to control
SF-268 = assay: Growth inhibition of human SF-268 cells at 10 uM incubated for 48 hrs by sulforhodamine B assay relative to control
MOLT-4 = assay: Growth inhibition of human MOLT-4 cells at 10 uM incubated for 48 hrs by sulforhodamine B assay relative to control
NCI-H522 = assay: Growth inhibition of human NCI-H522 cells at 10 uM incubated for 48 hrs by sulforhodamine B assay relative to control
SNB-19 = assay: Growth inhibition of human SNB-19 cells at 10 uM incubated for 48 hrs by sulforhodamine B assay relative to control
OVCAR-3 = assay: Growth inhibition of human OVCAR-3 cells at 10 uM incubated for 48 hrs by sulforhodamine B assay relative to control
U-251 = assay: Growth inhibition of human U-251 cells at 10 uM incubated for 48 hrs by sulforhodamine B assay relative to control
SF-539 = assay: Growth inhibition of human SF-539 cells at 10 uM incubated for 48 hrs by sulforhodamine B assay relative to control
OVCAR-8 = assay: Growth inhibition of human OVCAR-8 cells at 10 uM incubated for 48 hrs by sulforhodamine B assay relative to control

O=C(Cn1nnc2ccccc21)Nc1ccc(-c2nc3ccccc3s2)cc1
inhibition of growth at 10 µM (NCI-H226): 32.5%
inhibition of growth at 10 µM (IGROV-1): 2.46%
inhibition of growth at 10 µM (PC-3): 16.7%
inhibition of growth at 10 µM (Hs-578T): -11.5%
inhibition of growth at 10 µM (MCF7): 71.1%
inhibition of growth at 10 µM (UACC-62): 2.9%
inhibition of growth at 10 µM (MDA-MB-435): 4.09%
inhibition of growth at 10 µM (K562): 44.8%
inhibition of growth at 10 µM (HT-29): -0.75%
inhibition of growth at 10 µM (SK-OV-3): -4.22%
inhibition of growth at 10 µM (KM12): 8.6%
inhibition of growth at 10 µM (UO-31): 13.5%
inhibition of growth at 10 µM (MDA-MB-468): 124%
inhibition of growth at 10 µM (SK-MEL-5): 25.7%
inhibition of growth at 10 µM (A549): 6.45%
inhibition of growth at 10 µM (SR): 59.9%
inhibition of growth at 10 µM (RXF 393): 0.05%
inhibition of growth at 10 µM (M14): 9.36%
inhibition of growth at 10 µM (OVCAR-4): 27.8%
inhibition of growth at 10 µM (NCI-H23): 19.3%
inhibition of growth at 10 µM (OVCAR-5): -4.45%
inhibition of growth at 10 µM (T47D): 33.1%
inhibition of growth at 10 µM (MDA-MB-231): 5.25%
inhibition of growth at 10 µM (TK-10): 5.23%
inhibition of growth at 10 µM (DU-145): 26%
inhibition of growth at 10 µM (UACC-257): 5.5%
inhibition of growth at 10 µM (ACHN): -9.93%
inhibition of growth at 10 µM (SF-295): 15.2%
inhibition of growth at 10 µM (Malme-3M): 3.07%
inhibition of growth at 10 µM (BT-549): 13.5%
inhibition of growth at 10 µM (HCC 2998): 6.26%
inhibition of growth at 10 µM (NCI-H322M): -2.72%
inhibition of growth at 10 µM (RPMI-8226): 14.7%
inhibition of growth at 10 µM (786-0): 5.01%
inhibition of growth at 10 µM (HL-60(TB)): 9.24%
inhibition of growth at 10 µM (SN12C): -0.79%
inhibition of growth at 10 µM (SF-268): 7.63%
inhibition of growth at 10 µM (MOLT-4): 38.4%
inhibition of growth at 10 µM (NCI-H522): 20.8%
inhibition of growth at 10 µM (SNB-19): -2.9%
inhibition of growth at 10 µM (OVCAR-3): 9.56%
inhibition of growth at 10 µM (U-251): 10.4%
inhibition of growth at 10 µM (SF-539): 28.8%
inhibition of growth at 10 µM (OVCAR-8): 1.53%

O=C(CNCc1ccccc1)Nc1ccc(-c2nc3ccccc3s2)cc1
inhibition of growth at 10 µM (NCI-H226): 15.8%
inhibition of growth at 10 µM (IGROV-1): -2.9%
inhibition of growth at 10 µM (PC-3): 19.1%
inhibition of growth at 10 µM (Hs-578T): -4.26%
inhibition of growth at 10 µM (MCF7): 61.6%
inhibition of growth at 10 µM (UACC-62): 7.61%
inhibition of growth at 10 µM (MDA-MB-435): 4.91%
inhibition of growth at 10 µM (K562): 11.6%
inhibition of growth at 10 µM (HT-29): 1.86%
inhibition of growth at 10 µM (SK-OV-3): -18.4%
inhibition of growth at 10 µM (KM12): 2.66%
inhibition of growth at 10 µM (UO-31): 20.5%
inhibition of growth at 10 µM (MDA-MB-468): 73.3%
inhibition of growth at 10 µM (SK-MEL-5): 5.63%
inhibition of growth at 10 µM (A549): 22.7%
inhibition of growth at 10 µM (SR): 21.3%
inhibition of growth at 10 µM (RXF 393): -3.76%
inhibition of growth at 10 µM (M14): 3.6%
inhibition of growth at 10 µM (OVCAR-4): 2.46%
inhibition of growth at 10 µM (NCI-H23): 9.23%
inhibition of growth at 10 µM (OVCAR-5): 12.3%
inhibition of growth at 10 µM (T47D): 11.6%
inhibition of growth at 10 µM (MDA-MB-231): 16.9%
inhibition of growth at 10 µM (TK-10): -12%
inhibition of growth at 10 µM (DU-145): -7.09%
inhibition of growth at 10 µM (UACC-257): 4.97%
inhibition of growth at 10 µM (ACHN): 0.1%
inhibition of growth at 10 µM (SF-295): 6.24%
inhibition of growth at 10 µM (Malme-3M): -6.22%
inhibition of growth at 10 µM (BT-549): 1.91%
inhibition of growth at 10 µM (HCC 2998): 9.91%
inhibition of growth at 10 µM (NCI-H322M): 17.8%
inhibition of growth at 10 µM (RPMI-8226): 10.1%
inhibition of growth at 10 µM (786-0): 8.55%
inhibition of growth at 10 µM (HL-60(TB)): 3.9%
inhibition of growth at 10 µM (SN12C): 5.25%
inhibition of growth at 10 µM (SF-268): 3.99%
inhibition of growth at 10 µM (MOLT-4): 12%
inhibition of growth at 10 µM (NCI-H522): 9.64%
inhibition of growth at 10 µM (SNB-19): 2.46%
inhibition of growth at 10 µM (OVCAR-3): 8.88%
inhibition of growth at 10 µM (U-251): 18.6%
inhibition of growth at 10 µM (SF-539): 17.8%
inhibition of growth at 10 µM (OVCAR-8): -1.99%
